Laboratory results taken from patent US9701670B2, “Pyrazolyl-ureas as kinase inhibitors” (RESPIVERT LIMITED, priority 2013, dated 2017).

What was measured:
[1] = molecular target: p38 MAPKα isoform (MAPK14) (Homo sapiens (Human), UniProt Q16539); test: p38 MAPKα enzyme inhibition (FRET, Z-LYTE), Method 1; assay type: biochemical; details: Method 1 (Table 4a1)
[2] = system: Differentiated U937 cells; test: (l) Cell viability: MTT assay; assay type: cell-based, human; details: 1 μg/mL
Summary of the method: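 MTT read-out (1 h, absorbance 550 nm) on d-U937 cells after pre-incubation with 1 or 10 μg/mL compound under two regimes: 4 h, 5% FCS, or 24 h, 10% FCS RPMI1640. Values are percent loss of viability relative to vehicle (0.5% DMSO), so increases are reported as negative.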

Chain of p38 MAPKα isoform (MAPK14) (Q16539 whole entry, canonical isoform): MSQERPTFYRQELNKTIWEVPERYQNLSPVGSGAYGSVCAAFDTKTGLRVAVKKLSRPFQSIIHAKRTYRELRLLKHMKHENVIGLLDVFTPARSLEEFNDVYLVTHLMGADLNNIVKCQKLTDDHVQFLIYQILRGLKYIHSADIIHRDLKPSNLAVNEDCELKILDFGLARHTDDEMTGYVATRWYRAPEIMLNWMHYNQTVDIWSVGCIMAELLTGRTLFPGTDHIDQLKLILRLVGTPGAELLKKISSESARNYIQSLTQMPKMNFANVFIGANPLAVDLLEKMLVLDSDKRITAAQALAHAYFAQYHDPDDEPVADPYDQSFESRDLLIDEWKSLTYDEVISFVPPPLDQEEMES

Row | Structure (SMILES) | IC50 [1] | Cell viability at time point in d-U937 cells 4 h [2] | Cell viability at time point in d-U937 cells 24 h [2]
1 | COc1ccc(-n2nc(C(C)C)cc2NC(=O)Nc2ccc(Oc3ccnc(Nc4cc(Cl)cc(C(=O)NCCN5CCOCC5)c4)n3)c3ccccc23)cc1 [Example 61, 3-chloro-5-((4-((4-(3-(3-isopropyl-1-(4-methoxyphenyl)-1H-pyrazol-5-yl)ureido)naphthalen-1-yl)oxy)pyrimidin-2-yl)amino)-N-(2-morpholinoethyl)benzamide] | 0.02 µM | −ve (−ve and +ve indicate that the value is below and above respectively, the no significant effect threshold, defined as 30% inhibition at 1 μg/mL at the time point indicated.) | −ve (−ve and +ve indicate that the value is below and above respectively, the no significant effect threshold, defined as 30% inhibition at 1 μg/mL at the time point indicated.)
2 | COc1cc(Nc2nccc(Oc3ccc(NC(=O)Nc4cc(C(C)C)nn4-c4ccc(C)cc4)c4ccccc34)n2)cc(C(=O)N(C)CCN2CCOCC2)c1 [Example 68, 3-((4-((4-(3-(3-isopropyl-1-(p-tolyl)-1H-pyrazol-5-yl)ureido)naphthalen-1-yl)oxy)pyrimidin-2-yl)amino)-5-methoxy-N-methyl-N-(2-morpholinoethyl)benzamide] | < 0.001 µM | −ve (−ve and +ve indicate that the value is below and above respectively, the no significant effect threshold, defined as 30% inhibition at 1 μg/mL at the time point indicated.) | −ve (−ve and +ve indicate that the value is below and above respectively, the no significant effect threshold, defined as 30% inhibition at 1 μg/mL at the time point indicated.)
3 | COCCNC(=O)c1cc(Nc2nccc(Oc3ccc(NC(=O)Nc4cc(C(C)C)nn4-c4ccc(C)cc4)c4ccccc34)n2)cc(OC)c1 [Example 66, 3-((4-((4-(3-(3-isopropyl-1-(p-tolyl)-1H-pyrazol-5-yl)ureido)naphthalen-1-yl)oxy)pyrimidin-2-yl)amino)-5-methoxy-N-(2-methoxyethyl)benzamide] | 0.024 µM | −ve (−ve and +ve indicate that the value is below and above respectively, the no significant effect threshold, defined as 30% inhibition at 1 μg/mL at the time point indicated.) | −ve (−ve and +ve indicate that the value is below and above respectively, the no significant effect threshold, defined as 30% inhibition at 1 μg/mL at the time point indicated.)
4 | COc1cc(Nc2nccc(Oc3ccc(NC(=O)Nc4cc(C(C)(C)C)nn4-c4ccc(C)cc4)c4ccccc34)n2)cc(C(=O)NCCN2CCOCC2)c1 [Example 52, 3-((4-((4-(3-(3-(tert-butyl)-1-(p-tolyl)-1H-pyrazol-5-yl)ureido)naphthalen-1-yl)oxy)pyrimidin-2-yl)amino)-5-methoxy-N-(2-morpholinoethyl)benzamide] | 0.013 µM | −ve (−ve and +ve indicate that the value is below and above respectively, the no significant effect threshold, defined as 30% inhibition at 1 μg/mL at the time point indicated.) | −ve (−ve and +ve indicate that the value is below and above respectively, the no significant effect threshold, defined as 30% inhibition at 1 μg/mL at the time point indicated.)
5 | COc1ccc(-n2nc(C(C)C)cc2NC(=O)Nc2ccc(Oc3ccnc(Nc4cc(C(=O)NCCO)ccc4OC)n3)c3ccccc23)cc1 [Example 34, N-(2-hydroxyethyl)-3-((4-((4-(3-(3-isopropyl-1-(4-methoxyphenyl)-1H-pyrazol-5-yl)ureido)naphthalen-1-yl)oxy)pyrimidin-2-yl)amino)-4-methoxybenzamide] | < 0.001 µM | +ve (−ve and +ve indicate that the value is below and above respectively, the no significant effect threshold, defined as 30% inhibition at 1 μg/mL at the time point indicated.) | −ve (−ve and +ve indicate that the value is below and above respectively, the no significant effect threshold, defined as 30% inhibition at 1 μg/mL at the time point indicated.)
6 | COc1cc(Nc2cc(Oc3ccc(NC(=O)Nc4cc(C(C)(C)C)nn4-c4ccc(C)cc4)c4ccccc34)ncn2)cc(C(=O)NCCN2CCOCC2)c1 [Example 72, 3-((6-((4-(3-(3-(tert-butyl)-1-(p-tolyl)-1H-pyrazol-5-yl)ureido)naphthalen-1-yl)oxy)pyrimidin-4-yl)amino)-5-methoxy-N-(2-morpholinoethyl)benzamide] | < 0.001 µM | −ve (−ve and +ve indicate that the value is below and above respectively, the no significant effect threshold, defined as 30% inhibition at 1 μg/mL at the time point indicated.) | −ve (−ve and +ve indicate that the value is below and above respectively, the no significant effect threshold, defined as 30% inhibition at 1 μg/mL at the time point indicated.)
7 | COc1ccc(-n2nc(C(C)(C)C)cc2NC(=O)Nc2ccc(Oc3ccnc(Nc4cc(OC)cc(C(=O)NCCN5CCOCC5)c4)n3)c3ccccc23)cc1 [Example 54, 3-((4-((4-(3-(3-(tert-butyl)-1-(4-methoxyphenyl)-1H-pyrazol-5-yl)ureido)naphthalen-1-yl)oxy)pyrimidin-2-yl)amino)-5-methoxy-N-(2-morpholinoethyl)benzamide] | 0.012 µM | −ve (−ve and +ve indicate that the value is below and above respectively, the no significant effect threshold, defined as 30% inhibition at 1 μg/mL at the time point indicated.) | −ve (−ve and +ve indicate that the value is below and above respectively, the no significant effect threshold, defined as 30% inhibition at 1 μg/mL at the time point indicated.)
8 | COc1cc(Nc2nccc(Oc3ccc(NC(=O)Nc4cc(C(C)C)nn4-c4ccc(C)cc4)c4ccccc34)n2)cc(C(=O)NCCN(C)C)c1 [Example 5, N-(2-(Dimethylamino)ethyl)-3-((4-((4-(3-(3-isopropyl-1-(p-tolyl)-1H-pyrazol-5-yl)ureido)naphthalen-1-yl)oxy)pyrimidin-2-yl)amino)-5-methoxybenzamide] | 0.001 µM | −ve (−ve and +ve indicate that the value is below and above respectively, the no significant effect threshold, defined as 30% inhibition at 1 μg/mL at the time point indicated.) | −ve (−ve and +ve indicate that the value is below and above respectively, the no significant effect threshold, defined as 30% inhibition at 1 μg/mL at the time point indicated.)
9 | Cc1csc(-n2nc(C(C)(C)C)cc2NC(=O)Nc2ccc(Oc3ccnc(Nc4cccc(C(=O)NCCN5CCOCC5)c4)n3)c3ccccc23)c1 [Example 24, 3-((4-((4-(3-(3-(tert-butyl)-1-(4-methylthiophen-2-yl)-1H-pyrazol-5-yl)ureido)naphthalen-1-yl)oxy)pyrimidin-2-yl)amino)-N-(2-morpholinoethyl)benzamide] | 0.011 µM | −ve (−ve and +ve indicate that the value is below and above respectively, the no significant effect threshold, defined as 30% inhibition at 1 μg/mL at the time point indicated.) | −ve (−ve and +ve indicate that the value is below and above respectively, the no significant effect threshold, defined as 30% inhibition at 1 μg/mL at the time point indicated.)
10 | COc1cc(Nc2nccc(Oc3ccc(NC(=O)Nc4cc(C(C)(C)C)nn4-c4ccc(C)cc4)c4ccccc34)n2)cc(C(=O)NCCN(C)C)c1 [Example 43, 3-((4-((4-(3-(3-(tert-butyl)-1-(p-tolyl)-1H-pyrazol-5-yl)ureido)naphthalen-1-yl)oxy)pyrimidin-2-yl)amino)-N-(2-(dimethylamino)ethyl)-5-methoxybenzamide] | 0.004 µM | −ve (−ve and +ve indicate that the value is below and above respectively, the no significant effect threshold, defined as 30% inhibition at 1 μg/mL at the time point indicated.) | −ve (−ve and +ve indicate that the value is below and above respectively, the no significant effect threshold, defined as 30% inhibition at 1 μg/mL at the time point indicated.)
11 | COc1ccc(Nc2nccc(Oc3ccc(NC(=O)Nc4cc(C(C)C)nn4-c4ccc(C)cc4)c4ccccc34)n2)cc1C(=O)NCCN1CCOCC1 [Example 70, 5-((4-((4-(3-(3-isopropyl-1-(p-tolyl)-1H-pyrazol-5-yl)ureido)naphthalen-1-yl)oxy)pyrimidin-2-yl)amino)-2-methoxy-N-(2-morpholinoethyl)benzamide] | 0.005 µM | −ve (−ve and +ve indicate that the value is below and above respectively, the no significant effect threshold, defined as 30% inhibition at 1 μg/mL at the time point indicated.) | −ve (−ve and +ve indicate that the value is below and above respectively, the no significant effect threshold, defined as 30% inhibition at 1 μg/mL at the time point indicated.)
12 | Cc1ccc(-n2nc(C(C)(C)C)cc2NC(=O)Nc2ccc(Oc3ccnc(Nc4cccc(C(=O)NCCN5CCN(C)CC5)c4)n3)c3ccccc23)cc1 [Example 25, 3-((4-((4-(3-(3-(tert-butyl)-1-(p-tolyl)-1H-pyrazol-5-yl)ureido)naphthalen-1-yl)oxy)pyrimidin-2-yl)amino)-N-(2-(4-methylpiperazin-1-yl)ethyl)benzamide] | 0.013 µM | −ve (−ve and +ve indicate that the value is below and above respectively, the no significant effect threshold, defined as 30% inhibition at 1 μg/mL at the time point indicated.) | −ve (−ve and +ve indicate that the value is below and above respectively, the no significant effect threshold, defined as 30% inhibition at 1 μg/mL at the time point indicated.)
